Assay results reported in ChEMBL document CHEMBL4627246, “Pyroglutamide-Based P2X7 Receptor Antagonists Targeting Inflammatory Bowel Disease” (J Med Chem, 2020).

Test system: SW-620
Test: Cytotoxicity against human SW620 cells assessed as effect on cell growth at 10 uM incubated for 48 hrs by sulforhodamine B assay
Assay type: cell-based
Settings: sw-620, 48 h

Compound	Activity
CN(C)/C=C1\C[C@H]2C(=O)N(Cc3ccc(Cl)cc3Cl)C(N(C)C)N2C1=O (stereo not given in full)	Non-Toxic
O=C(NCc1ccc(Cl)cc1Cl)[C@@H]1CCC(=O)N1c1ccc(Cl)cc1Cl	Non-Toxic
O=C(NCc1ccc(Cl)cc1Cl)[C@@H]1CCC(=O)N1c1ccsc1	Non-Toxic

Test system: DU-145
Test: Cytotoxicity against human DU145 cells assessed as effect on cell growth at 10 uM incubated for 48 hrs by sulforhodamine B assay
Assay type: cell-based
Settings: du-145, 48 h

Compound	Activity
CN(C)/C=C1\C[C@H]2C(=O)N(Cc3ccc(Cl)cc3Cl)C(N(C)C)N2C1=O (stereo not given in full)	Non-Toxic
O=C(NCc1ccc(Cl)cc1Cl)[C@@H]1CCC(=O)N1c1ccc(Cl)cc1Cl	Non-Toxic
O=C(NCc1ccc(Cl)cc1Cl)[C@@H]1CCC(=O)N1c1ccsc1	Non-Toxic

Test system: A549
Test: Cytotoxicity against human A549/ATCC cells assessed as effect on cell growth at 10 uM incubated for 48 hrs by sulforhodamine B assay
Assay type: cell-based
Settings: a549, 48 h

Compound	Activity
CN(C)/C=C1\C[C@H]2C(=O)N(Cc3ccc(Cl)cc3Cl)C(N(C)C)N2C1=O (stereo not given in full)	Non-Toxic
O=C(NCc1ccc(Cl)cc1Cl)[C@@H]1CCC(=O)N1c1ccc(Cl)cc1Cl	Non-Toxic
O=C(NCc1ccc(Cl)cc1Cl)[C@@H]1CCC(=O)N1c1ccsc1	Non-Toxic

Test system: 786-0
Test: Cytotoxicity against human 786-0 cells assessed as effect on cell growth at 10 uM incubated for 48 hrs by sulforhodamine B assay
Assay type: cell-based
Settings: 786-0, 48 h

Compound	Activity
CN(C)/C=C1\C[C@H]2C(=O)N(Cc3ccc(Cl)cc3Cl)C(N(C)C)N2C1=O (stereo not given in full)	Non-Toxic
O=C(NCc1ccc(Cl)cc1Cl)[C@@H]1CCC(=O)N1c1ccc(Cl)cc1Cl	Non-Toxic
O=C(NCc1ccc(Cl)cc1Cl)[C@@H]1CCC(=O)N1c1ccsc1	Non-Toxic

Test system: EKVX
Test: Cytotoxicity against human EKVX cells assessed as effect on cell growth at 10 uM incubated for 48 hrs by sulforhodamine B assay
Assay type: cell-based
Settings: not given

Compound	Activity
CN(C)/C=C1\C[C@H]2C(=O)N(Cc3ccc(Cl)cc3Cl)C(N(C)C)N2C1=O (stereo not given in full)	Non-Toxic
O=C(NCc1ccc(Cl)cc1Cl)[C@@H]1CCC(=O)N1c1ccc(Cl)cc1Cl	Non-Toxic
O=C(NCc1ccc(Cl)cc1Cl)[C@@H]1CCC(=O)N1c1ccsc1	Non-Toxic

Test system: SR
Test: Cytotoxicity against human SR cells assessed as effect on cell growth at 10 uM incubated for 48 hrs by sulforhodamine B assay
Assay type: cell-based
Settings: not given

Compound	Activity
CN(C)/C=C1\C[C@H]2C(=O)N(Cc3ccc(Cl)cc3Cl)C(N(C)C)N2C1=O (stereo not given in full)	Non-Toxic
O=C(NCc1ccc(Cl)cc1Cl)[C@@H]1CCC(=O)N1c1ccc(Cl)cc1Cl	Non-Toxic
O=C(NCc1ccc(Cl)cc1Cl)[C@@H]1CCC(=O)N1c1ccsc1	Non-Toxic

Test system: OVCAR-5
Test: Cytotoxicity against human OVCAR5 cells assessed as effect on cell growth at 10 uM incubated for 48 hrs by sulforhodamine B assay
Assay type: cell-based
Settings: ovcar-5, 48 h

Compound	Activity
CN(C)/C=C1\C[C@H]2C(=O)N(Cc3ccc(Cl)cc3Cl)C(N(C)C)N2C1=O (stereo not given in full)	Non-Toxic
O=C(NCc1ccc(Cl)cc1Cl)[C@@H]1CCC(=O)N1c1ccc(Cl)cc1Cl	Non-Toxic
O=C(NCc1ccc(Cl)cc1Cl)[C@@H]1CCC(=O)N1c1ccsc1	Non-Toxic

Test system: UO-31
Test: Cytotoxicity against human UO31 cells assessed as effect on cell growth at 10 uM incubated for 48 hrs by sulforhodamine B assay
Assay type: cell-based
Settings: uo-31, 48 h

Compound	Activity
CN(C)/C=C1\C[C@H]2C(=O)N(Cc3ccc(Cl)cc3Cl)C(N(C)C)N2C1=O (stereo not given in full)	Non-Toxic
O=C(NCc1ccc(Cl)cc1Cl)[C@@H]1CCC(=O)N1c1ccc(Cl)cc1Cl	Non-Toxic
O=C(NCc1ccc(Cl)cc1Cl)[C@@H]1CCC(=O)N1c1ccsc1	Non-Toxic

Test system: ACHN
Test: Cytotoxicity against human ACHN cells assessed as effect on cell growth at 10 uM incubated for 48 hrs by sulforhodamine B assay
Assay type: cell-based
Settings: not given

Compound	Activity
CN(C)/C=C1\C[C@H]2C(=O)N(Cc3ccc(Cl)cc3Cl)C(N(C)C)N2C1=O (stereo not given in full)	Non-Toxic
O=C(NCc1ccc(Cl)cc1Cl)[C@@H]1CCC(=O)N1c1ccc(Cl)cc1Cl	Non-Toxic
O=C(NCc1ccc(Cl)cc1Cl)[C@@H]1CCC(=O)N1c1ccsc1	Non-Toxic

Test system: SK-OV-3
Test: Cytotoxicity against human SKOV3 cells assessed as effect on cell growth at 10 uM incubated for 48 hrs by sulforhodamine B assay
Assay type: cell-based
Settings: sk-ov-3, 48 h

Compound	Activity
CN(C)/C=C1\C[C@H]2C(=O)N(Cc3ccc(Cl)cc3Cl)C(N(C)C)N2C1=O (stereo not given in full)	Non-Toxic
O=C(NCc1ccc(Cl)cc1Cl)[C@@H]1CCC(=O)N1c1ccc(Cl)cc1Cl	Non-Toxic
O=C(NCc1ccc(Cl)cc1Cl)[C@@H]1CCC(=O)N1c1ccsc1	Non-Toxic

Test system: M14
Test: Cytotoxicity against human M14 cells assessed as effect on cell growth at 10 uM incubated for 48 hrs by sulforhodamine B assay
Assay type: cell-based
Settings: m14, 48 h

Compound	Activity
CN(C)/C=C1\C[C@H]2C(=O)N(Cc3ccc(Cl)cc3Cl)C(N(C)C)N2C1=O (stereo not given in full)	Non-Toxic
O=C(NCc1ccc(Cl)cc1Cl)[C@@H]1CCC(=O)N1c1ccc(Cl)cc1Cl	Non-Toxic
O=C(NCc1ccc(Cl)cc1Cl)[C@@H]1CCC(=O)N1c1ccsc1	Non-Toxic

Test system: SF-295
Test: Cytotoxicity against human SF295 cells assessed as effect on cell growth at 10 uM incubated for 48 hrs by sulforhodamine B assay
Assay type: cell-based
Settings: sf-295, 48 h

Compound	Activity
CN(C)/C=C1\C[C@H]2C(=O)N(Cc3ccc(Cl)cc3Cl)C(N(C)C)N2C1=O (stereo not given in full)	Non-Toxic
O=C(NCc1ccc(Cl)cc1Cl)[C@@H]1CCC(=O)N1c1ccc(Cl)cc1Cl	Non-Toxic
O=C(NCc1ccc(Cl)cc1Cl)[C@@H]1CCC(=O)N1c1ccsc1	Non-Toxic

Test system: RPMI-8226
Test: Cytotoxicity against human RPMI8226 cells assessed as effect on cell growth at 10 uM incubated for 48 hrs by sulforhodamine B assay
Assay type: cell-based
Settings: rpmi-8226, 48 h

Compound	Activity
CN(C)/C=C1\C[C@H]2C(=O)N(Cc3ccc(Cl)cc3Cl)C(N(C)C)N2C1=O (stereo not given in full)	Non-Toxic
O=C(NCc1ccc(Cl)cc1Cl)[C@@H]1CCC(=O)N1c1ccc(Cl)cc1Cl	Non-Toxic
O=C(NCc1ccc(Cl)cc1Cl)[C@@H]1CCC(=O)N1c1ccsc1	Non-Toxic

Test system: HL-60(TB)
Test: Cytotoxicity against human HL-60(TB) cells assessed as effect on cell growth at 10 uM incubated for 48 hrs by sulforhodamine B assay
Assay type: cell-based
Settings: not given

Compound	Activity
CN(C)/C=C1\C[C@H]2C(=O)N(Cc3ccc(Cl)cc3Cl)C(N(C)C)N2C1=O (stereo not given in full)	Non-Toxic
O=C(NCc1ccc(Cl)cc1Cl)[C@@H]1CCC(=O)N1c1ccc(Cl)cc1Cl	Non-Toxic
O=C(NCc1ccc(Cl)cc1Cl)[C@@H]1CCC(=O)N1c1ccsc1	Non-Toxic

Test system: A498
Test: Cytotoxicity against human A498 cells assessed as effect on cell growth at 10 uM incubated for 48 hrs by sulforhodamine B assay
Assay type: cell-based
Settings: a498, 48 h

Compound	Activity
CN(C)/C=C1\C[C@H]2C(=O)N(Cc3ccc(Cl)cc3Cl)C(N(C)C)N2C1=O (stereo not given in full)	Non-Toxic
O=C(NCc1ccc(Cl)cc1Cl)[C@@H]1CCC(=O)N1c1ccc(Cl)cc1Cl	Non-Toxic
O=C(NCc1ccc(Cl)cc1Cl)[C@@H]1CCC(=O)N1c1ccsc1	Non-Toxic

Test system: NCI-H460
Test: Cytotoxicity against human NCI-H460 cells assessed as effect on cell growth at 10 uM incubated for 48 hrs by sulforhodamine B assay
Assay type: cell-based
Settings: nci-h460, 48 h

Compound	Activity
CN(C)/C=C1\C[C@H]2C(=O)N(Cc3ccc(Cl)cc3Cl)C(N(C)C)N2C1=O (stereo not given in full)	Non-Toxic
O=C(NCc1ccc(Cl)cc1Cl)[C@@H]1CCC(=O)N1c1ccc(Cl)cc1Cl	Non-Toxic
O=C(NCc1ccc(Cl)cc1Cl)[C@@H]1CCC(=O)N1c1ccsc1	Non-Toxic

Test system: HCT-15
Test: Cytotoxicity against human HCT15 cells assessed as effect on cell growth at 10 uM incubated for 48 hrs by sulforhodamine B assay
Assay type: cell-based
Settings: hct-15, 48 h

Compound	Activity
CN(C)/C=C1\C[C@H]2C(=O)N(Cc3ccc(Cl)cc3Cl)C(N(C)C)N2C1=O (stereo not given in full)	Non-Toxic
O=C(NCc1ccc(Cl)cc1Cl)[C@@H]1CCC(=O)N1c1ccc(Cl)cc1Cl	Non-Toxic
O=C(NCc1ccc(Cl)cc1Cl)[C@@H]1CCC(=O)N1c1ccsc1	Non-Toxic

Test system: KM12
Test: Cytotoxicity against human KM12 cells assessed as effect on cell growth at 10 uM incubated for 48 hrs by sulforhodamine B assay
Assay type: cell-based
Settings: km12, 48 h

Compound	Activity
CN(C)/C=C1\C[C@H]2C(=O)N(Cc3ccc(Cl)cc3Cl)C(N(C)C)N2C1=O (stereo not given in full)	Non-Toxic
O=C(NCc1ccc(Cl)cc1Cl)[C@@H]1CCC(=O)N1c1ccc(Cl)cc1Cl	Non-Toxic
O=C(NCc1ccc(Cl)cc1Cl)[C@@H]1CCC(=O)N1c1ccsc1	Non-Toxic

Test system: MOLT-4
Test: Cytotoxicity against human MOLT4 cells assessed as effect on cell growth at 10 uM incubated for 48 hrs by sulforhodamine B assay
Assay type: cell-based
Settings: molt-4, 48 h

Compound	Activity
CN(C)/C=C1\C[C@H]2C(=O)N(Cc3ccc(Cl)cc3Cl)C(N(C)C)N2C1=O (stereo not given in full)	Non-Toxic
O=C(NCc1ccc(Cl)cc1Cl)[C@@H]1CCC(=O)N1c1ccc(Cl)cc1Cl	Non-Toxic
O=C(NCc1ccc(Cl)cc1Cl)[C@@H]1CCC(=O)N1c1ccsc1	Non-Toxic

Test system: SF-539
Test: Cytotoxicity against human SF539 cells assessed as effect on cell growth at 10 uM incubated for 48 hrs by sulforhodamine B assay
Assay type: cell-based
Settings: sf-539, 48 h

Compound	Activity
CN(C)/C=C1\C[C@H]2C(=O)N(Cc3ccc(Cl)cc3Cl)C(N(C)C)N2C1=O (stereo not given in full)	Non-Toxic
O=C(NCc1ccc(Cl)cc1Cl)[C@@H]1CCC(=O)N1c1ccc(Cl)cc1Cl	Non-Toxic
O=C(NCc1ccc(Cl)cc1Cl)[C@@H]1CCC(=O)N1c1ccsc1	Non-Toxic
